# Patent US7037891B2, “Methods of modulating G-protein-coupled receptor kinase-associated signal transduction” (Children's Medical Center Corporation, priority 1997, dated 2006)
# Legend:
# [1] = Type II diabetes in sand rats: blood-glucose after i.p. injection; assay type: in vivo, sand rats (psamomys obesus); conditions: diabetic sand-rats
# Source text: Sand-rats (psamomys) which are genetically prone to develop Type II diabetes were used in this study. The genetically selected sand-rats, 3 to 6 months old, were fed an energy-rich diet (Weizmann HE) for about 3 to 10 days until they became diabetic, as judged by their elevated blood-glucose level (see R. Kalman et al., “The Efficiency of Sand Rat Metabolism is Responsible for Development of Obesity and Diabetes”, J. of Basic & Clinical Physiology & Pharmacology (1993), vol. 4, no. 1–2, pp 57–68, the pertinent portions of which are incorporated herein by reference).
# The diabetic sand-rats were injected i.p. once a week with a compound comprising GRK-derived peptide K024H107 (SEQ ID NO:10) at a dose of 10 mg/kg. The peptide was prepared by diluting a 10 mM solution of the peptide in 100% DMSO with phosphate buffered saline (PBS) containing 0.1% bovine serum albumin (BSA) to a concentration of 400 μM. […] of the 10 mM peptide in DMSO solution was mixed with 160 μl of 1.6M NH4HCO3 and heated for 40 minutes at 100° C. The resultant solution was then diluted to 400 μM in 2 M Hepes buffer (pH 7.0). This peptide stock solution was labeled “tbi”. The vehicle of the solution for injection included 8% DMSO, 0.67M ammonium bicarbonate, and 2M Hepes. Control animals received an i.p. injection of the vehicle only.
# C6 glioblastoma cells = experiment: Intracellular cyclic AMP levels (EIA) after isoproterenol activation; assay type: cell-based
# Source text: It is well known that after activation of the various GPCRs there is an activation of the adenolate cyclase by G-proteins. This raises the cyclic-AMP levels in the cell, and these levels are then decreased due to the desensitization of the receptors by GRK. Thus it is expected that inhibition of GAST will eliminate this decrease in the cyclic AMP levels, and will cause a constitutive increase in cAMP levels.
# C6 glioblastoma cells, which are known to express the β-adrenagic receptor (the substrate of GRK). have been used.
# To the cells the following compounds were added:
# The amount of the activity was measured by measuring the increase of intracellular cyclic AMP levels, which were measured using the commercially available kit of Biotrack Cellular Communication Assay cyclic-AMP enzyme—immunoassay (EIA) system.
# [2] = Reduction of weight and appetite of normal mice; assay type: in vivo; conditions: for change in body weight as compared to control / food consumption as compared to control: NDP-αMSH 0.9 μg/kg BW; for change in body weight as compared to control: KO24H107 21 mg/kg, or both (FIG. 7A); for food consumption as compared to control: KO24H107 21 mg/kg, or both (FIG. 7B)
# Procedure: 18 Sabra male mice, 8 weeks old, were used and were divided into four groups as followed:
# The animals were weighed before trial and periodically during the trial.
# At the same time, food was weighted before it was introduced into cages and at the end of each tested period. From this point on, the follow-up included both weighing of the mice and of the food for the short period, every couple of hours, until night, and later on for the long period, each 24 hour cycle.
# The results of FIG. 7A are shown as the percentage of change in body weight as compared to the initial weight for each mice, and then averaged for each group. The calculation of food consumption (FIG. 7B) was calculated in each group relative to the total weight of all animals (4 or 5 animals) and averaged separately for each group.
# The above experiment was conducted again with another compound comprising a GRK-derived peptide KO24H112 (SEQ ID NO:5) 16 animals were used as follows: […]
Substance,animals that became normoglycemic already after the first injection (responders) ([1]; i.p. 10 mg/kg once a week),rest of the treated animals (nonresponders): normoglycemia ([1]; i.p. 10 mg/kg once a week),"blood-glucose ([1]; i.p. 10 mg/kg, after a single injection, vs vehicle controls (FIG. 3, 4))","cyclic AMP levels (C6 glioblastoma cells; 10 μM compound added first, 1 μM isoproterenol an hour later (FIG. 6))","cyclic AMP level (C6 glioblastoma cells; order reversed: 1 μM isoproterenol first, 10 μM compound one hour later (FIG. 6))",change in body weight as compared to control ([2]; normal Sabra male mice),food consumption as compared to control ([2]; normal Sabra male mice),"weight and food consumption effect compared among the three treated groups ([2]; normal Sabra male mice, compound alone 21 mg/kg vs NDP-αMSH and combination (FIG. 7A, 7B))","weight change ([2]; normal mice, 23.2 mg/kg and 31.5 mg/kg, vs vehicle (FIG. 8A))","change in food consumption ([2]; normal mice, 23.2 mg/kg and 31.5 mg/kg, vs vehicle (FIG. 8B))"
"K024H107: GRK-derived peptide, SEQ ID NO.: 10 (LLRRHS; bARK1)",4 animals,became nornoglycemic after three additional weekly injections,dramatic decrease in blood-glucose to the normal level,rose significantly,hardly changed,weight decrease,decrease in food consumption,strongest effect,,
"KO24H112: GRK-derived peptide; SEQ ID NO.: 15 in b61, printed SEQ ID NO:5 in b230 (LLRRHSI; bARK1)",,,,,,,,,effective in reducing both body weight and consumption,effective in reducing both body weight and consumption
NDP-αMSH [reference compound],,,,,,weight decrease,decrease in food consumption,,,
